# Legend:
# Assay type in all cases: cell-based
# [1] = test system: Plasmodium falciparum chloroquine-resistant W2 clone; assay: anti-HRP2 test on P. falciparum-infected erythrocytes; settings: for IC50: Plasmodium falciparum, read-out: IC50 Plasmodium Falciparum Anti-HRP2; for activity class against P. falciparum: class by IC50
# Protocol: (§1) Briefly, the parasites were kept as described at 37 °C in human erythrocytes (A^+) in complete medium (RPMI 1640 supplemented with 10% human sera blood group A^+, 2% glutamine, and 7.5% NaHCO3) either in Petri dishes in a candle jar or in 25-cm culture flasks in an environment containing a gas mixture atmosphere (3% O2, 5% CO2 and 91% N2). Before testing, the ring-stage parasites were synchronized by sorbitol; the suspension was adjusted for parasitemia and hematocrit as described below for each test used.
# (§2) The effects of compounds against the W2 P. falciparum blood cultures were evaluated through incorporation of ^3H hypoxanthine (Perkin Elmer, Waltham, MA, USA) by the parasites. Alternatively, compound effects were also examined using monoclonal antibodies to a commercially available parasite histidine and alanine-rich protein (HRP2) (MPFM ICLLAB-55A®, MPFG55P ICLLAB®, Immunology Consultants Laboratory Inc. (ICL), Portland, OR, USA), as described previously. The [3H]-hypoxanthine assay was performed with 1% of parasitemia and 1% of hematocrit, and the level of isotope incorporation was read in a beta-counter (Perkin Elmer). The anti-HRP2 test was performed with 0.05% parasitemia and 1.5% hematocrit, and the quantification of protein was determined using a specific read at 450 nm in a spectrophotometer (SpectraMax340PC^384, Molecular Devices, Sunnyvale, CA, USA). Drug activities were expressed by the half-maximal inhibitory dose (IC50) compared to the drug-free controls and estimated using the curve-fitting software Origin 8.0 (OriginLab Corporation, Northampton, MA, USA).
# [2] = test system: Plasmodium falciparum chloroquine-resistant W2 clone; assay: [3H]-hypoxanthine incorporation assay on P. falciparum-infected erythrocytes; settings: read-out: IC50 Plasmodium Falciparum Hypoxanthine
# Protocol: as §1, §2
# [3] = test system: human hepatoma cell line (HepG2); settings: MTT, 24 h incubation
# Protocol: For in vitro cytotoxicity experiments, the cell monolayer was trypsinized, washed with culture medium, distributed in a flat-bottomed 96-well plate (5 × 10^3 cells/well), and finally incubated for 18 h at 37 °C for cell adherence.
# For cytotoxicity testing, we used the (3-(4,5-dimethylthiazol-2-yl)-2,5-diphenyltetrazolium bromide (MTT) assay, performed as described in the literature. The HepG2 cell line was incubated with 20 µL of the compounds in different concentrations (200–25 µg/mL) for 24 h in an atmosphere of 5% CO2 at 37 °C.
# For the MTT assay, which evaluates mitochondrial viability, 20 µL of MTT solution (5 mg/mL) was added, and the plates were incubated for an additional 3 h. After incubation, the supernatant was carefully removed from the wells, followed by addition of 100 µL DMSO with thorough mixing. Optical densities at 570 and 630 nm (background) were determined by an ELISA reader.
# Cell viability was expressed as the percentage of control absorbance obtained in untreated cells after subtracting the absorbance from appropriate background. Lastly, the minimum lethal dose for 50% of the cells (MLD50) was determined as previously described in the literature. The ratio between MLD50 and drug activity (IC50) in vitro was used to determine the selectivity index (SI).
# [4] = Erythrocyte, W2 clone, 0.05% parasitemia, 1.5% hematocrit
# [5] = Erythrocyte, W2 clone, 1% parasitemia, 1% hematocrit
structure (smiles),measurement,setting,value
"CCN(CC)CCCC(C)Nc1ccnc2cc(Cl)ccc12 (stereo not shown) [Chloroquine, reference compound]",IC50,"[1]; W2, Erythrocyte",220 nM
same,IC50,"[2]; W2, Erythrocyte",0.23 µM
same,MDL50 HepG2,[3],490 µM
"Cc1cc(Nc2cccc3ccccc23)n2nc(C(F)(F)F)nc2n1 [Compound 4, 5-Methyl-7-(naphthalen-1-ylamine)-2-(trifluoromethyl)[1,2,4]triazolo[1,5-a]pyrimidine]",IC50,[1]; [4],2200 nM
same,MDL50 HepG2,[3],326 µM
"Cc1cc(Nc2ccc3ccccc3c2)n2nc(C(F)(F)F)nc2n1 [Compound 5, 5-Methyl-7-(naphthalen-2-ylamine)-2-(trifluoromethyl)[1,2,4]triazolo[1,5-a]pyrimidine]",IC50,[1]; [4],23 ± 2 nM
same,MDL50 HepG2,[3],425 µM
"Cc1cc(Nc2ccccc2)n2nc(C(F)(F)F)nc2n1 [Compound 6, 5-Methyl-7-phenylamine-2-(trifluoromethyl)[1,2,4]triazolo[1,5-a]pyrimidine]",IC50,[1]; [4],3000 ± 2000 nM
same,IC50,[2]; [5],10.2 ± 5 µM
same,MDL50 HepG2,[3],>682 µM
"Cc1cc(Nc2cccc(Cl)c2)n2nc(C(F)(F)F)nc2n1 [Compound 7, 7-(3-Chlorophenylamine)-5-methyl-2-(trifluoromethyl)[1,2,4]triazolo[1,5-a]pyrimidine]",IC50,[1]; [4],1830 ± 1100 nM
same,IC50,[2]; [5],1.22 µM
same,MDL50 HepG2,[3],373 µM
"Cc1cc(Nc2ccc(Cl)c(Cl)c2)n2nc(C(F)(F)F)nc2n1 [Compound 8, 7-(3,4-Dichlorophenylamine)-5-methyl-2-(trifluoromethyl)[1,2,4]triazolo[1,5-a]pyrimidine]",IC50,[1]; [4],550 ± 660 nM
same,IC50,[2]; [5],0.11 ± 0.05 µM
same,MDL50 HepG2,[3],>552 µM
"Cc1cc(Nc2ccc(Cl)cc2Cl)n2nc(C(F)(F)F)nc2n1 [Compound 9, 7-(2,4-Dichlorophenylamine)-5-methyl-2-(trifluoromethyl)[1,2,4]triazolo[1,5-a]pyrimidine]",IC50,[1]; [4],2700 ± 2210 nM
same,IC50,[2]; [5],3.32 ± 1.1 µM
same,MDL50 HepG2,[3],320 µM
"Cc1cc(Nc2c(F)cccc2F)n2nc(C(F)(F)F)nc2n1 [Compound 10, 7-(2,6-Difluorophenylamine)-5-methyl-2-(trifluoromethyl)[1,2,4]triazolo[1,5-a]pyrimidine]",IC50,[1]; [4],> 69900 nM
same,activity class against P. falciparum,[1]; W2 clone,Inactive
same,IC50,[2]; [5],> 149 µM
same,MDL50 HepG2,[3],337 µM
"COc1ccc(Nc2cc(C)nc3nc(C(F)(F)F)nn23)cc1 [Compound 11, 7-(4-Methoxyphenylamine)-5-methyl-2-(trifluoromethyl)[1,2,4]triazolo[1,5-a]pyrimidine]",IC50,[1]; [4],400 ± 90 nM
same,IC50,[2]; [5],1.5 ± 1.2 µM
same,MDL50 HepG2,[3],>619 µM
"COc1cc(Nc2cc(C)nc3nc(C(F)(F)F)nn23)cc(OC)c1 [Compound 12, 7-(3,5-Dimethoxyphenylamine)-5-methyl-2-(trifluoromethyl)[1,2,4]triazolo[1,5-a]pyrimidine]",IC50,[1]; [4],2500 ± 50 nM
same,IC50,[2]; [5],0.36 ± 0.1 µM
same,MDL50 HepG2,[3],498 µM
"Cc1cc(Nc2cc(Cl)cc(Cl)c2)n2nc(C(F)(F)F)nc2n1 [Compound 13, 7-(3,5-Dichlorophenylamine)-5-methyl-2-(trifluoromethyl)[1,2,4]triazolo[1,5-a]pyrimidine]",IC50,[1]; [4],1470 ± 110 nM
same,IC50,[2]; [5],0.83 ± 0.58 µM
same,MDL50 HepG2,[3],320 µM
"COc1cc(Nc2cc(C)nc3nc(C)nn23)cc(OC)c1 [Compound 14, 7-(3,5-Dimethoxyphenylamine)-2,5-dimethyl[1,2,4]triazolo[1,5-a]pyrimidine]",IC50,[1]; [4],3840 ± 400 nM
same,IC50,[2]; [5],15.1 ± 10 µM
same,MDL50 HepG2,[3],515 µM
"Cc1cc(Nc2cc(Cl)cc(Cl)c2)n2nc(C)nc2n1 [Compound 15, 7-(3,5-Dichlorophenylamine)-2,5-dimethyl[1,2,4]triazolo[1,5-a]pyrimidine]",IC50,[1]; [4],> 162000 nM
same,activity class against P. falciparum,[1]; W2 clone,Inactive
same,IC50,[2]; [5],149 µM
same,MDL50 HepG2,[3],415 µM
"Cc1cc(Nc2ccc(C(F)(F)F)cc2)n2nc(C)nc2n1 [Compound 16, 2,5-Dimethyl-7-(4-(trifluoromethyl)phenylamine)-[1,2,4]triazolo[1,5-a]pyrimidine]",IC50,[1]; [4],300 nM
same,IC50,[2]; [5],0.4 ± 0.06 µM
same,MDL50 HepG2,[3],446 µM
"FC(F)(F)c1cc(Nc2cc(Cl)cc(Cl)c2)n2nc(C(F)(F)F)nc2n1 [Compound 17, 7-(3,5-Dichlorophenylamine)-2,5-bis(trifluoromethyl)[1,2,4]triazolo[1,5-a]pyrimidine]",IC50,[1]; [4],12300 nM
same,IC50,[2]; [5],23.4 µM
same,MDL50 HepG2,[3],269 µM
"Cc1cc(NC2CCCCC2)n2nc(C(F)(F)F)nc2n1 [Compound 18, 7-Cyclohexylamine-5-methyl-2-(trifluoromethyl)[1,2,4]triazolo[1,5-a]pyrimidine]",IC50,[1]; [4],8690 ± 460 nM
same,IC50,[2]; [5],10 µM
same,MDL50 HepG2,[3],515 µM
Cc1cc(N2CCOCC2)n2nc(C(F)(F)F)nc2n1 [Compound 19],IC50,[1]; [4],> 174000 nM
same,activity class against P. falciparum,[1]; W2 clone,Inactive
same,IC50,[2]; [5],> 174 µM
same,MDL50 HepG2,[3],>697 µM
"Cc1cc(N2CCN(C)CC2)n2nc(C(F)(F)F)nc2n1 [Compound 20, 5-Methyl-7-(4-methylpiperazin-1-yl)-2-(trifluoromethyl)[1,2,4]triazolo[1,5-a]pyrimidine]",IC50,[1]; [4],39000 ± 17000 nM
same,activity class against P. falciparum,[1]; W2 clone,Inactive
same,IC50,[2]; [5],57 ± 13 µM
same,MDL50 HepG2,[3],>666 µM
"Cc1cc(N2CCCC2)n2nc(C(F)(F)F)nc2n1 [Compound 21, 5-Methyl-7-(pyrrolidin-1-yl)-2-(trifluoromethyl)[1,2,4]triazolo[1,5-a]pyrimidine]",IC50,[1]; [4],> 184000 nM
same,activity class against P. falciparum,[1]; W2 clone,Inactive
same,IC50,[2]; [5],> 184 µM
same,MDL50 HepG2,[3],>738 µM
"Cc1cc(Nc2ccccn2)n2nc(C(F)(F)F)nc2n1 [Compound 22, 5-Methyl-7-(pyridin-2-ylamine)-2-(trifluoromethyl)[1,2,4]triazolo[1,5-a]pyrimidine]",IC50,[1]; [4],> 156000 nM
same,activity class against P. falciparum,[1]; W2 clone,Inactive
same,IC50,[2]; [5],> 170 µM
same,MDL50 HepG2,[3],394 µM
"Cc1cc(Nc2nc(C(F)(F)F)n[nH]2)n2nc(C(F)(F)F)nc2n1 [Compound 23, 5-Methyl-2-(trifluoromethyl)-7-(5-(trifluoromethyl)-3-amine-4H-1,2,4-triazolyl)[1,2,4]triazolo[1,5-a]pyrimidine]",IC50,[1]; [4],36900 ± 11400 nM
same,activity class against P. falciparum,[1]; W2 clone,Inactive
same,IC50,[2]; [5],31.2 ± 17 µM
same,MDL50 HepG2,[3],<71 µM
"Cc1cc(-n2cccn2)n2nc(C(F)(F)F)nc2n1 [Compound 24, 5-Methyl-7-(1H-pyrazol-1-yl)-2-(trifluoromethyl)[1,2,4]triazolo[1,5-a]pyrimidine]",IC50,[1]; [4],2100 nM
same,MDL50 HepG2,[3],>746 µM
"Cc1cc(-n2ccnc2)n2nc(C(F)(F)F)nc2n1 [Compound 25, 7-(1H-Imidazol-1-yl)-5-methyl-2-(trifluoromethyl)[1,2,4]triazolo[1,5-a]pyrimidine]",IC50,[1]; [4],21000 ± 2000 nM
same,IC50,[2]; [5],15 ± 0.7 µM
same,MDL50 HepG2,[3],<93 µM
"Cc1cc(-n2cncn2)n2nc(C(F)(F)F)nc2n1 [Compound 26, 5-Methyl-7-(1H-1,2,4-triazol-1-yl)-2-(trifluoromethyl)[1,2,4]triazolo[1,5-a]pyrimidine]",IC50,[1]; [4],29700 nM
same,activity class against P. falciparum,[1]; W2 clone,Inactive
same,IC50,[2]; [5],33.5 ± 14.9 µM
same,MDL50 HepG2,[3],<93 µM
"Cc1cc(-n2cccc2)n2nc(C(F)(F)F)nc2n1 [Compound 27, 5-Methyl-7-(1H-pyrrol-1-yl)-2-(trifluoromethyl)[1,2,4]triazolo[1,5-a]pyrimidine]",IC50,[1]; [4],97400 ± 22500 nM
same,activity class against P. falciparum,[1]; W2 clone,Inactive
same,IC50,[2]; [5],78.7 ± 7.49 µM
same,MDL50 HepG2,[3],>749 µM
"CCN(CC)CCCC(C)Nc1cc(C)nc2ncnn12 (stereo not shown) [Compound 28, 5-Methyl-7-N'-(N,N-diethylpentane-1,4-diamine)[1,2,4]triazolo[1,5-a]pyrimidine]",IC50,[1]; [4],> 172000 nM
same,activity class against P. falciparum,[1]; W2 clone,Inactive
same,IC50,[2]; [5],> 172 µM
same,MDL50 HepG2,[3],>689 µM
